Measured values as given in US20110160121A1, “UNACYLATED GHRELIN AND ANALOGS AS THERAPEUTIC AGENTS FOR VASCULAR REMODELING IN DIABETIC PATIENTS AND TREATMENT OF CARDIOVASCULAR DISEASE” (ALIZE PHARMA SAS, priority 2008, published 2011).
Values joined by “and” are separate entries in the source; they are usually repeats but may differ in a detail not shown here. Equal entries are not always repeated. *1 amine or outer side, *2 acyl side, *3 side chain or, on linkers, in order; H or OH if unused. Where no end group is shown, it is not given here. [ ]: non-standard residue; d: D form. The star is where a group is joined. 125I‑Tyr = O=C([C@H](Cc1ccc(O[*:3])c([125I])c1)N[*:1])[*:2]; Octanoyl = CCCCCCCC(=O)*; 125I = [125I]*

Assays:
CAC [1] = experiment: CAC cell-cycle progression (percentage of cells in S phase, FACS); assay type: cell-based, human; settings: cultured CAC; effect still evident after 7 days of culture; FIG. 1A
Procedure: First, cell-cycle progression in response to UAG and AG was evaluated. […] To investigate whether this effect relies on inhibition of baseline ROS production, DCF-DA assay was performed. […] H2O2 was used as positive control. AGE-mediated damage signals mainly rely on ROS production (Ref. 29). […] Isolation and Culture of CAC from Peripheral Blood Mononuclear Cells—Peripheral-blood mononuclear cells (PB-MNC) isolated by Fycoll Histopaque 1077 (Sigma) were resuspended in 20% FBS 199 Medium and plated on fibronectin-coated dishes (Biocoat, Becton Dickinson Labware) as described by Hill et al. (Ref. 19). Human UAG studies were performed on CAC recovered from normal donors and diabetic patients. The purity of sorted cells was assessed by FACS analysis (Ref. 20). For experiments, the isolated CAC were cultured under 5% CO2 at 37° C. for 4 days on 20 μg/ml fibronectin-coated dishes in EGM-2 medium containing 10% FBS, hydrocortisone, human Fibroblast Growth Factor, Vascular Endothelial Growth Factor, Insulin Growth Factor 1, ascorbic acid, human Epidermal Growth Factor, gentamicin and amphotericin-B (Cambrex, Walkersville, Md., USA) alone or in combination with 1 μM UAG and 1.2 mg/ml AGE. […] Cell surface molecules were evaluated by flow cytometry as previously described (Ref. 24). Frequency of marker-positive cells is expressed as mean±standard deviation (SD).

CAC [2] = experiment: Detection of ROS in CAC (DCF-DA assay, FACS); assay type: cell-based, human; settings: for level of ROS production in AGE-cultured cells: AGE-cultured CAC, FIG. 1C, 1F; for baseline level of ROS production: CAC, compared to untreated cells, FIG. 1B, 1E
Procedure: First, cell-cycle progression in response to UAG and AG was evaluated. […] To investigate whether this effect relies on inhibition of baseline ROS production, DCF-DA assay was performed. […] H2O2 was used as positive control. AGE-mediated damage signals mainly rely on ROS production (Ref. 29). […] Detection of ROS—DCF-DA (0.5 μM final concentration) was added to CAC in the indicated culture conditions. At the indicated times, the cells were subjected to FACS analysis and processed as previously described (Ref. 22). H2O2 was used as positive control.

CAC [3] = experiment: CAC mobilization assay in healthy subjects and diabetic patients; assay type: in vivo, human; settings: diabetic patients compared to normal subjects, treated for 6 hours; FIG. 3B
Procedure: This observation led to investigate the effect of UAG treatment on BM CAC mobilization. To this end, normal subject and diabetic patients were treated with UAG or saline for 6 hours. After treatment, CAC were recovered from 4 control subjects and 4 diabetic patients, analyzed by FACS analysis and counted. […] Black lines refer to preimmune IgG used as negative control and grey lines refer to surface marker expression. Similar results were obtained when CAC from untreated diabetic patients or untreated or treated healthy subjects were analyzed (data not shown).
All the subjects underwent the following testing session: • UAG (3.0 μg/kg/h iv. as infusion for 12 h from 0 to 12 hours); • isotonic saline (infusion from 0 to 12 hours).
Mobilization assay—CAC recovered from healthy subjects and diabetic patients, treated with UAG or saline for 6 h and 12 h, were evaluated. Total number of MNC was counted by 3 independent investigators. The percentage of CAC was calculated by comparing CAC obtained from diabetic patients and healthy donors, treated for 6 h and 12 h with UAG, AG or saline, to CAC recovered at time 0.

CAC [4] = experiment: Expansion (S phase) of CAC recovered from treated patients, cultured with IL-3; assay type: in vivo, human; settings: cells recovered from treated diabetic patients; FIG. 3C
Procedure: To confirm their vascular features, the cells recovered from patients and controls were cultured with IL-3; which is able to induce expansion and arterial morphogenesis of CD45^+ cells derived from both peripheral blood and BM (Ref. 28).
Flow Cytometry—To analyze CAC cell-cycle progression, cells recovered from diabetic, healthy subjects, NOD/SCID, ob/ob and wt mice, were cultured in EBM-2 supplemented with IL-3 (10 ng/ml), FACS analysis was performed as previously described (Ref. 20). Cell surface molecules were evaluated by flow cytometry as previously described (Ref. 24). Frequency of marker-positive cells is expressed as mean±standard deviation (SD).

cardiomyocytes = settings: Ref. 8; cited from earlier work
[5] = tested on: human umbilical vein endothelial cells (HUVECs); settings: Ref. 5; cited from earlier work
[6] = tested on: human microvascular endothelial cells (HMVECs); settings: exogenous AG, Ref. 4; cited from earlier work
human arteries = settings: Ref. 35; cited from earlier work
CAC membranes = experiment: Competition binding with [125I-Tyr4]-UAG on CAC membranes; set-up: species or system human
Description: The specific binding of [^125I-Tyr^4]-UAG (calculated as difference between binding in the absence, control, and in the presence of UAG) represented about 75% of the control value (P<0.001) and was detected either on fresh (0.25 and 0.26 fmol) or frozen-thawed (0.20 and 0.33 fmol) CAC membranes from two different cell preparations.

[7] = biological target: specific binding sites for UAG on CAC membranes; experiment: saturation binding on CAC membranes
[8] = biological target: specific binding sites for UAG on CAC membranes; experiment: saturation binding on CAC membranes, Scatchard analysis
[9] = biological target: specific binding sites for UAG on CAC membranes; experiment: radioligand binding, fresh CAC membranes, two cell preparations
[10] = biological target: specific binding sites for UAG on CAC membranes; experiment: radioligand binding, frozen-thawed CAC membranes, two cell preparations
[11] = biological target: specific binding sites for UAG on CAC membranes; experiment: radioligand binding to CAC membranes; difference between binding without and with 100 nM unlabelled UAG

AG: 28 amino acid peptide with an n-octanoyl modification on the Ser3 residue; endogenous ligand of GHSR (GSS(Octanoyl)FLSPEHQRVQQRKESKKPPAKLQPR) [reference compound]
percentage of cells in S phase (CAC [1]): not AG, was able to induce a significant increase | level of ROS production in AGE-cultured cells (CAC [2]): no effects could be detected | intracellular ROS production in diabetic-recovered cells (CAC [2]; CAC isolated from type 2 diabetic patients, treated in vitro, FIG. 1D): not AG, reduced intracellular ROS production | baseline level of ROS production (CAC [2]): A protective effect failed to be detected | number of recovered cells (CAC) (CAC [3]): No statistical differences were detected | cell expansion (cells in S phase) with IL-3 (CAC [4]): not from AG-treated diabetic patients, underwent cell expansion | inhibition of experimentally-induced cell death (cardiomyocytes): inhibit experimentally-induced cell death | basal and TNF-alpha-induced chemotactic cytokine production and mononuclear cell adhesion [5]: inhibit basal and TNF-α-induced chemotactic cytokine production and mononuclear cell adhesion | cell proliferation, migration, in vitro angiogenesis and ERK2 phosphorylation [6]: significantly increased cell proliferation, migration, in vitro angiogenesis and ERK2 phosphorylation | vasodilator action (human arteries): have vasodilator actions in human arteries

Ser-Pro-Glu-His-Gln-Arg-Val-Gln (SPEHQRVQ; not fully specified (C-terminus); printed as Ser-Pro-Glu-His-Gln-Arg-Val-Gln; listed as Homo sapiens) [UAG (6-13)]
level of ROS production in AGE-cultured cells (CAC [2]): the level of ROS production in AGE-cultured cells was reduced | baseline level of ROS production (CAC [2]): reduces the baseline level of ROS production | inhibition of binding of [125I-Tyr4]-UAG to CAC membranes (CAC membranes; 100 nM competitor, 0.25 nM radioligand, FIG. 5A): inhibited

[^125I-Tyr^4]-UAG: radioligand used for binding to CAC membranes (GSS[125I‑Tyr]LSPEHQRVQQRKESKKPPAKLQPR)
specific binding of [125I-Tyr4]-UAG (CAC membranes; difference between binding in the absence and in the presence of 100 nM UAG, P<0.001): about 75 % of the control value | specific binding of [125I-Tyr4]-UAG (CAC membranes; fresh CAC membranes, two different cell preparations): 0.25 fmol and 0.26 fmol | specific binding of [125I-Tyr4]-UAG (CAC membranes; frozen-thawed CAC membranes, two different cell preparations): 0.20 fmol and 0.33 fmol

GSSY(125I)LSPEHQRVQQRKESKKPPAKLQPR (ends and bridges not checked) [[125I-Tyr4]-UAG]
concentration at maximum specific binding [7]: 2 nM | Bmax (fmol/mg membrane protein) [8]: 10.7 | Kd [8]: 0.48 nM | specific binding [9]: 0.25 fmol and 0.26 fmol | specific binding [10]: 0.2 fmol and 0.33 fmol | specific binding (% of control value) [11]: 75%
